Square brackets hold non-standard residues; d marks the D form. Peptide text beside a SMILES is read from it. * marks the point of attachment. Dolaproine = CO[C@@H]([C@@H]1CCCN1)[C@@H](C)C(=O)O; Dil = CC[C@H](C)[C@H](NC)[C@@H](CC(=O)O)OC; X1 = C[C@@H](N*)[C@@H](O)c1ccccc1; NMeV = CN[C@H](C(=O)O)C(C)C
Tests used:
SK-BR-3 cells = assay: In vitro cell proliferation assay (CellTiter-Glo), SK-BR-3 cells; format: cell-based, human; settings: ADC incubated 3-5 days
Procedure: Cell-based in vitro assays were used to measure viability (proliferation), cytotoxicity, and induction of apoptosis (caspase activation) of the ADC of the invention.
The homogeneous assay procedure involves adding the single reagent (CellTiter-Glo® Reagent) directly to cells cultured in serum-supplemented medium. Cell washing, removal of medium and multiple pipetting steps are not required. The system detects as few as 15 cells/well in a 384-well format in 10 minutes after adding reagent and mixing. The cells may be treated continuously with ADC, or they may be treated and separated from ADC.
The homogeneous “add-mix-measure” format results in cell lysis and generation of a luminescent signal proportional to the amount of ATP present. The amount of ATP is directly proportional to the number of cells present in culture. […] Viable cells are reflected in relative luminescence units (RLU). […] Data can be recorded by luminometer or CCD camera imaging device. The luminescence output is presented as relative light units (RLU), measured over time.
Control wells were prepared containing medium and without cells. • 3. […] The plate was incubated at room temperature for 10 minutes to stabilize the luminescence signal. • 8. Luminescence was recorded and reported in graphs as RLU=relative luminescence units.

[1] = Plasma clearance pharmacokinetics in rats; format: in vivo, Sprague-Dawley rats; settings: rat, free drug
Procedure: Pharmacokinetic plasma clearance and stability of ADC were investigated in rats and cynomolgus monkeys. Plasma concentration was measured over time. […] Rats are a non-specific model for ErbB receptor antibodies, since the rat is not known to express HER2 receptor proteins.
AUC inf is the area under the plasma concentration-time curve from time of dosing to infinity and is a measure of the total exposure to the measured entity (drug, ADC). CL is defined as the volume of plasma cleared of the measured entity in unit time and is expressed by normalizing to body weight. T1/2 term is the half-life of the drug in the body measured during its elimination phase.
Animals were dosed by bolus tail vein injection (IV Push). […] Total antibody was measured by ELISA—ECD/GxhuFc-HRP. Antibody drug conjugate was measured by ELISA—MMAE/MMAF/ECD-Bio/SA-HRP.

[2] = test system: CD30+ cell line Karpas 299; assay: Cytotoxicity determination (resazurin, General Procedure I), Karpas 299; format: cell-based, human; settings: Karpas 299, 96 hours; for IC50: resazurin
Procedure: General Procedure I—Cytotoxicity determination. To evaluate the cytotoxicity of Exemplary Conjugates 7-10, cells were seeded at approximately 5-10,000 per well in 150 μl of culture medium then treated with graded doses of Exemplary Conjugates 7-10 in quadruplicates at the initiation of assay. Cytotoxicity assays were carried out for 96 hours after addition of test compounds. Fifty μl of the resazurin dye was added to each well during the last 4 to 6 hours of the incubation to assess viable cells at the end of culture. Dye reduction was determined by fluorescence spectrometry using the excitation and emission wavelengths of 535 nm and 590 nm, respectively. For analysis, the extent of resazurin reduction by the treated cells was compared to that of the untreated control cells.

In the case of “H-MC-vc-PAB-MMAE: trastuzumab conjugated via a cysteine to MC-val-cit-PAB-MMAE; preparations of different loading”, the “IC50 (μg ADC/ml)” value (SK-BR-3 cells) is reported as 0.015 μg ADC/ml.
For `CC[C@H](C)[C@@H]([C@@H](CC(=O)N1CCC[C@H]1[C@H](OC)[C@@H](C)C(=O)N[C@@H](Cc1ccccc1)C(=O)O)OC)N(C)C(=O)[C@@H](NC(=O)[C@@H](NC)C(C)C)C(C)C` [Compound 2, N-methylvaline-valine-dolaisoleuine-dolaproine-phenylalanine] (H-[NMeV]V[Dil][Dolaproine]F-OH), the Cmax ([1]; Sprague-Dawley, plasma, intravenous, 200 ug/kg) was 280 ng/mL, the half-life ([1]; Sprague-Dawley, plasma, intravenous, 200 ug/kg, 200 μg/kg, read-out: T½ Term. (converted)) was 5.38 h and the AUCinf ([1]; 200 μg/kg) was 0.99 µg·days/mL. For the same molecule, the CL ([1]; 200 μg/kg) was 8.5 mL/h/kg.
For `CC[C@H](C)[C@@H]([C@@H](CC(=O)N1CCC[C@H]1[C@H](OC)[C@@H](C)C(=O)N[C@H](C)[C@@H](O)c1ccccc1)OC)N(C)C(=O)[C@@H](NC(=O)[C@@H](NC)C(C)C)C(C)C` [MMAE, mono-methyl auristatin E, reference compound] (H-[NMeV]V[Dil][Dolaproine]-X1), the AUCinf ([1]; 206 μg/kg) was 3.71 µg·days/mL, the CL ([1]; 206 μg/kg) was 2.61 mL/h/kg and the “T½ Term.” value ([1]; 206 μg/kg) was 17.8 h.
With cAC10-9: cAC10 Conjugate of Compound 9 the “activity compared with cAC10-val-cit-MMAE” value [2] was “slightly more active” and the “IC50” value [2] was 0.5 ng/mL.
In the case of “cAC10-val-cit-MMAE: cAC10 (anti-CD30) val-cit MMAE conjugate used as comparator [reference compound]”, the “IC50” value [2] is reported as 6 ng/mL.

Reference: patent US7964567B2, “Monomethylvaline compounds capable of conjugation to ligands” (Seattle Genetics, Inc., priority 2003, dated 2011)
